The text below walks through data of patent publication EP2705856A1, “Compounds for the treatment of neurodegenerative disorders” (Deutsches Zentrum für Neurodegenerative Erkrankungen e.V., priority 2012, dated 2014).

Molecules are shown by their SMILES. Like-named read-outs stand apart in the source and are kept apart here.

The target in one test is hFKBP12 (Homo sapiens, UniProt P62942). Kind of test: Protease-coupled PPIase assay, FKBP12. The class given is biochemical. Particulars: Example 3; read-out: IC50 value, inhibition of PPlase activity of FKBP12. The method, then:
The PPlase activity of hFKBP12 and hCypA was determined by using the protease-coupled PPlase assay as described by Fischer, H. Bang, B. Ludwig, K. Mann, J. Hacker, Mol. Microbiol. 1992, 6, 1375-1383. […] Then reaction was started by addition of 100 µg/mL of the isomer specific protease chymotrypsin, and the release of 4-nitroaniline was monitored by measuring the absorbance at 390 nm. […] Since tested PPlases vary in there catalytic efficiencies, different substrates has to be used to ensure equal rate constants of catalyzed cis/trans isomerization (Table 1). […] Table 1. Substrates for the respective PPlases

The target of the next test is hCypA (Homo sapiens, UniProt P62937). Kind of test: Protease-coupled PPIase assay, CypA. The class given is biochemical. On the procedure: The PPlase activity of hFKBP12 and hCypA was determined by using the protease-coupled PPlase assay as described by Fischer, H. Bang, B. Ludwig, K. Mann, J. Hacker, Mol. Microbiol. 1992, 6, 1375-1383. To study the effect of compounds 7-10 on PPlase activity, 100 nM of each hFKBP and 5 nM of each hCyp, respectively and 40 µM peptide substrate were preincubated in the presence or absence of various inhibitor concentrations for 6 min at 10 °C in 35mM HEPES/NaCl buffer (pH 7.5). Then reaction was started by addition of 100 µg/mL of the isomer specific protease chymotrypsin, and the release of 4-nitroaniline was monitored by measuring the absorbance at 390 nm. To achieve better comparability of compounds 7-10 effects on PPlase activity, the concentrations of FKBP and Cyp were kept constant at 100 nM and 5 nM, respectively. Since tested PPlases vary in there catalytic efficiencies, different substrates has to be used to ensure equal rate constants of catalyzed cis/trans isomerization (Table 1). […] Table 1. Substrates for the respective PPlases
Chain of hCypA (P62937 whole entry): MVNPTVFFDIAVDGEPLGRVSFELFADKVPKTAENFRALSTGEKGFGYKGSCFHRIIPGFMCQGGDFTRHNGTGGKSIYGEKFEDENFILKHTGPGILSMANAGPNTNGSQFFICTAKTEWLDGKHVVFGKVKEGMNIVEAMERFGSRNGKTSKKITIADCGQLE

Chain of hFKBP12 (P62942 whole entry): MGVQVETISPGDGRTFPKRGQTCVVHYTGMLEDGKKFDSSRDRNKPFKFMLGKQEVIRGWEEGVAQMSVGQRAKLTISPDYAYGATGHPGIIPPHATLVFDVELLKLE

For `C[C@@H]1C[C@@H]([C@H](O)CC2CC(=O)N(CC(=O)N(C)C)C(=O)C2)C(=O)[C@@H](C)C1` [DM-CHX, N-(N,N-Dimethylcarboxamidomethyl)cycloheximid], on hFKBP12, the IC50 turned out to be 36.9 ± 17.1 nM.

For the compound `C/C=C/C[C@@H](C)[C@@H](O)[C@H]1C(=O)N[C@@H](CC)C(=O)N(C)CC(=O)N(C)[C@@H](CC(C)C)C(=O)N[C@@H](C(C)C)C(=O)N(C)[C@@H](CC(C)C)C(=O)N[C@@H](C)C(=O)N[C@H](CO)C(=O)N(C)[C@@H](CC(C)C)C(=O)N(C)[C@@H](CC(C)C)C(=O)N(C)[C@@H](C(C)C)C(=O)N1C` [[D-Ser^8]-CsA], the IC50 on hCypA (read-out: /C50-values, inhibition of PPlase activity of hCypA, Example 1, Figure 1: hCypA 5 nM, substrate suc-Ala-Ala-Pro-Phe-pNA) was determined as 8.3 ± 1.4 nM; at hCypA (read-out: IC50 value, inhibition of CypA, Example 3), 1.5 ± 0.4 nM.
